Results reported in patent US20220211783A1, “GMCI AND DDRI COMBINATION THERAPY FOR TREATING CANCER” (Candel Therapeutics, Inc., priority 2019, published 2022).

How the values were obtained:
[1] = tested on: lung cell line e.g., A549, A427, H2030; test: Cell viability assay (vital dye such as Presto Blue, fluorescence) of GMCI, AZD1775 and their combination; format: cell-based
lung cancer cells = test: Double-stranded DNA breaks by H2AX-Ser139 staining, confocal microscopy; format: cell-based; conditions: 6 hours after addition of AZD1775 (IC50 concentration) and/or GCV

C=CCn1c(=O)c2cnc(Nc3ccc(N4CCN(C)CC4)cc3)nc2n1-c1cccc(C(C)(C)O)n1 [AZD1775]
cell viability (fluorescence normalized to samples that received no treatment) ([1]; Day 4, AZD1775 at its IC50 concentration or half of its IC50 concentration, GMCI = AdV-tk 100 MOI + ganciclovir 5 μg/ml): cytotoxic activity
EC50 ([1]; stated as the concentration used in the lung cell line, half the IC50 given as 40 nM, read-out: EC50 concentration of the drug): 80 nM
Double-stranded DNA breaks (lung cancer cells): occur
H2AX(Ser139) staining (lung cancer cells; versus untreated cells): large increase in H2AX staining
